As usually defined, the Papp is the rate of passage across a membrane or cell layer, normalised by area and donor concentration. For orientation: solubility means the concentration that dissolves in the medium under given conditions. A low value points to a poorly soluble substance.

Structures are written as SMILES. In brackets after ≈: the same amount, converted by molar mass.

A short description of one data set: Apparent permeability across human Caco-2 cell membrane at 10 uM after 120 mins by LC-MS/MS analysis. In kind it is ADME, cell-based.
Settings: not given
(Passage across Caco-2 layers is used to estimate intestinal permeability.)
Consider `Cn1nc(C(=O)O)c2c1-c1nc(Nc3ccccc3)ncc1CC2`, for which the Papp at 2 h, 10 µM was 2.7 ×10⁻⁶ cm/s. With `Cn1nc(C(N)=O)c2c1-c1nc(Nc3ccccc3)ncc1CC2`, the Papp at 2 h, 10 µM was found to be 58.3 ×10⁻⁶ cm/s.

A short description of another data set: Solubility at pH 7 after 24 hrs by LC-MS/MS analysis. Particulars: buffer. In kind it is physicochemical.
`CSc1ccccc1Nc1ncc2c(n1)-c1c(c(C(N)=O)nn1C)CC2` registered a solubility at 24 h of 2 µM (≈ 0.733 µg/mL). In other words, the single-digit micromolar range. Same read-out and setting: as for `Cn1nc(C(N)=O)c2c1-c1nc(Nc3ccccc3Cc3ccccc3)ncc1CC2`, the figure is under 1 µM; as for `Cn1nc(C(N)=O)c2c1-c1nc(Nc3ccccc3F)ncc1CC2`, 3 µM (≈ 1.02 µg/mL); as for `CC(=O)c1ccccc1Nc1ncc2c(n1)-c1c(c(C(N)=O)nn1C)CC2`, 2 µM (≈ 0.725 µg/mL). In the case of `COc1ccccc1Nc1ncc2c(n1)-c1c(c(C(N)=O)nn1C)CC2`, the solubility at 24 h turned out to be 3 µM (≈ 1.05 µg/mL). On the same count and under the same terms, the same measure for `CC(=O)c1ccc(N2CCN(C)CC2)cc1Nc1ncc2c(n1)-c1c(c(C(N)=O)nn1C)CC2`: 18 µM (≈ 8.29 µg/mL); for `Cn1nc(C(N)=O)c2c1-c1nc(Nc3ccccc3C(N)=O)ncc1CC2`: under 1 µM; for `Cn1nc(C(N)=O)c2c1-c1nc(Nc3ccccc3C(=O)c3ccccc3)ncc1CC2`: under 1 µM. As to `Cn1nc(C(N)=O)c2c1-c1nc(Nc3ccccc3S(N)(=O)=O)ncc1CC2`, the solubility at 24 h amounted to 4 µM (≈ 1.6 µg/mL).

Consider `Cn1nc(C(N)=O)c2c1-c1nc(Nc3ccccc3Sc3ccccc3)ncc1CC2`, for which the solubility at 24 h is under 1 µM. On the same count and under the same terms, as for `Cn1nc(C(N)=O)c2c1-c1nc(Nc3ccccc3C(F)(F)F)ncc1CC2`, the figure is 4 µM (≈ 1.55 µg/mL); as for `COc1cc(N2CCN(C)CC2)ccc1Nc1ncc2c(n1)-c1c(c(C(N)=O)nn1C)CC2`, over 225 µM; as for `CNc1ccccc1Nc1ncc2c(n1)-c1c(c(C(N)=O)nn1C)CC2`, 23 µM (≈ 8.04 µg/mL).

The compound `CC(=O)c1c(Nc2ncc3c(n2)-c2c(c(C(N)=O)nn2C)CC3)cccc1N1CCN(C)CC1` displayed a solubility at 24 h of 170 µM (≈ 78.3 µg/mL). In the case of `CC(=O)Nc1ccccc1Nc1ncc2c(n1)-c1c(c(C(N)=O)nn1C)CC2`, the concentration in solution (solubility at 24 h) was 16 µM (≈ 6.04 µg/mL). `Cn1nc(C(N)=O)c2c1-c1nc(Nc3ccccc3-c3ccccc3)ncc1CC2` registered a solubility at 24 h of under 1 µM. On the same count and under the same terms, the same measure for `Cn1nc(C(N)=O)c2c1-c1nc(Nc3ccccc3Oc3ccccc3)ncc1CC2`: under 1 µM; for `Cc1ccccc1Nc1ncc2c(n1)-c1c(c(C(N)=O)nn1C)CC2`: 3 µM (≈ 1 µg/mL). Regarding `Cn1nc(C(N)=O)c2c1-c1nc(Nc3ccccc3)ncc1CC2`, the concentration in solution (solubility at 24 h) was 3 µM (≈ 0.961 µg/mL). That is a single-digit micromolar value. Same read-out and setting: the same measure for `COC(=O)c1ccccc1Nc1ncc2c(n1)-c1c(c(C(N)=O)nn1C)CC2`: 2 µM (≈ 0.757 µg/mL); for `CC(C)c1ccccc1Nc1ncc2c(n1)-c1c(c(C(N)=O)nn1C)CC2`: 2 µM (≈ 0.725 µg/mL). Same read-out and setting: the same measure for `CC(=O)c1cc(N2CCN(C)CC2)ccc1Nc1ncc2c(n1)-c1c(c(C(N)=O)nn1C)CC2`: 83 µM (≈ 38.2 µg/mL); for `Cn1nc(C(N)=O)c2c1-c1nc(Nc3ccccc3N)ncc1CC2`: 190 µM (≈ 63.7 µg/mL); for `Cn1nc(C(N)=O)c2c1-c1nc(Nc3ccccc3Nc3ccccc3)ncc1CC2`: under 1 µM.

Source of the values: ChEMBL document CHEMBL1157785, “Identification of 4,5-dihydro-1H-pyrazolo[4,3-h]quinazoline derivatives as a new class of orally and selective Polo-like kinase 1 inhibitors” (J Med Chem, 2010).
